Where two headings read alike, the source gives them in different places.

The target of the assay is T1, human M2 receptor (Homo sapiens, UniProt P08172).
T1 sequence (P08172 1-466): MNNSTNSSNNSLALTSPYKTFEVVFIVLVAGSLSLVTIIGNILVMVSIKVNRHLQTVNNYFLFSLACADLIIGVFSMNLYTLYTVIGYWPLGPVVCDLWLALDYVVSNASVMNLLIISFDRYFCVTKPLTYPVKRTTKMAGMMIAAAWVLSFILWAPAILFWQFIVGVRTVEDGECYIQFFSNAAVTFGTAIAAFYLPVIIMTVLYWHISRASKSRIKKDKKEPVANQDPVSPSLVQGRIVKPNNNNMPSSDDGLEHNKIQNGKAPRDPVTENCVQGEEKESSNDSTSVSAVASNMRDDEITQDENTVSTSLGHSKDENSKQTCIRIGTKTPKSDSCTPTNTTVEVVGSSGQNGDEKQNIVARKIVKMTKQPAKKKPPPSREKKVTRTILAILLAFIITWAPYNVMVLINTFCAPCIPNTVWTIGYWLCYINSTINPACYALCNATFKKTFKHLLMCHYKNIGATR
The following applies: for Emax: read-out: Efficiency, boosting of the acetylcholine effect at EC20 acetylcholine concentration; for Efficiency: boosting of the acetylcholine effect at EC20 acetylcholine concentration.

The mark [1] stands for this setting: Receptor activity EC50, allosteric potency at EC20 acetylcholine, M2-GIRK1/4 reporter cells, in some cases mean of two or more determinations.
Where [2] appears, read: Receptor activity EC50, M2-GIRK1/4 activation test, acetylcholine at EC20, allosteric potency, in some cases mean values from two or more determinations.

Under setting [1], `O=C(N[C@@H](C1CC1)C(F)(F)F)c1cn(-c2c(F)cc(F)cc2F)c2nc(N3CC(O)C4(CC4)C3)ccc2c1=O` (mixture of isomers) [Example 600, N-[(1S)-1-Cyclopropyl-2,2,2-trifluoroethyl]-7-[7-hydroxy-5-azaspiro[2.4]hept-5-yl]-4-oxo-1-(2,4,6-trifluorophenyl)-1,4-dihydro-1,8-naphthyridine-3-carboxamide] registered a concentration for a half-maximal effect (EC50) of 28 nM. Moreover, the Emax (M2-GIRK1/4 reporter cells) stood at 96.9%.
As for `O=C(NC(CC(F)(F)F)C(F)(F)F)c1cn(-c2c(F)cc(F)cc2F)c2nc(N3C[C@@H](O)CC3=O)ccc2c1=O` (mixture of isomers) [Example 606, N-[1,1,1,4,4,4-Hexafluorobutan-2-yl]-7-[(4S)-4-hydroxy-2-oxopyrrolidin-1-yl]-4-oxo-1-(2,4,6-trifluorophenyl)-1,4-dihydro-1,8-naphthyridine-3-carboxamide], the EC50 under setting [1] turned out to be 27 nM. For the same compound, the Emax (M2-GIRK1/4 reporter cells) was 98%.
Regarding `CCC(COC(F)(F)F)NC(=O)c1cn(-c2c(F)cc(F)cc2F)c2nc(N3CCNC3=O)ccc2c1=O` (racemic) [Example 609, 4-Oxo-7-(2-oxoimidazolidin-1-yl)-N-[1-(trifluoromethoxy)butan-2-yl]-1-(2,4,6-trifluorophenyl)-1,4-dihydro-1,8-naphthyridine-3-carboxamide], under setting [1], the EC50 was 28 nM. Besides, where the note is “M2-GIRK1/4 reporter cells”, the Emax is 99%.
The compound `CCC(COC(F)(F)F)NC(=O)c1cn(-c2c(F)cc(F)cc2F)c2nc(N3CCNC3=O)ccc2c1=O` (racemic) [Example 610, 4-Oxo-7-(2-oxoimidazolidin-1-yl)-N-[1-(trifluoromethoxy)butan-2-yl]-1-(2,4,6-trifluorophenyl)-1,4-dihydro-1,8-naphthyridine-3-carboxamide] displayed an EC50 under setting [1] of 11 nM. For the setting “M2-GIRK1/4 reporter cells”, this compound showed an Efficiency of 100.0%.
`CCC(COC(F)(F)F)NC(=O)c1cn(-c2c(F)cc(F)cc2F)c2nc(N3CCNC3=O)ccc2c1=O` (racemic) [Example 611, 4-Oxo-7-(2-oxoimidazolidin-1-yl)-N-[1-(trifluoromethoxy)butan-2-yl]-1-(2,4,6-trifluorophenyl)-1,4-dihydro-1,8-naphthyridine-3-carboxamide] returned an EC50 under setting [1] of 17 nM. Under “M2-GIRK1/4 reporter cells”, the Efficiency was 90.0%.
In turn, `O=C(N[C@@H](C1CC1)C(F)(F)F)c1cn(-c2c(F)cc(F)cc2F)c2nc(N3CCC(O)C(O)C3)ccc2c1=O` (mixture of isomers) [Example 615, N-[(1 S)-1-Cyclopropyl-2,2,2-trifluoroethyl]-7-[trans-3,4-dihydroxypiperidin-1-yl]-4-oxo-1-(2,4,6-trifluorophenyl)-1,4-dihydro-1,8-naphthyridine-3-carboxamide] came in with an EC50 under setting [1] of 53 nM. Besides, where the note is “M2-GIRK1/4 reporter cells”, the Emax amounted to 99.3%.
As for `CC[C@H](NC(=O)c1cn(-c2c(F)cc(F)cc2F)c2nc(N3CC(O)C4(CC4)C3)ccc2c1=O)C(F)(F)F` (mixture of isomers) [Example 619, 7-[7-Hydroxy-5-azaspiro[2.4]hept-5-yl]-4-oxo-N-[(2S)-1,1,1-trifluorobutan-2-yl]-1-(2,4,6-trifluorophenyl)-1,4-dihydro-1,8-naphthyridine-3-carboxamide], the response under setting [1] was half-maximal at 40 nM (EC50). The Emax (M2-GIRK1/4 reporter cells) turned out to be 88.6%.
As to `CC(NC(=O)c1cn(-c2ccc(F)cc2F)c2nc(N3C[C@@H](O)CC3=O)ccc2c1=O)C(F)(F)C(F)(F)F` (mixture of isomers) [Example 622, 1-(2,4-Difluorophenyl)-7-[(4S)-4-hydroxy-2-oxopyrrolidin-1-yl]-4-oxo-N-[3,3,4,4,4-pentafluorobutan-2-yl]-1,4-dihydro-1,8-naphthyridine-3-carboxamide], the EC50 under setting [1] came out at 43 nM. In addition, the Emax (M2-GIRK1/4 reporter cells) was 93%.
`O=C(NC12CC(C1)C2)c1cn(-c2c(F)cc(F)cc2F)c2nc(N3CC(O)C4(CC4)C3)ccc2c1=O` (racemic) [Example 626, N-(Bicyclo[1.1.1]pent-1-yl)-7-[7-hydroxy-5-azaspiro[2.4]hept-5-yl]-4-oxo-1-(2,4,6-trifluorophenyl)-1,4-dihydro-1,8-naphthyridine-3-carboxamide] showed an EC50 under setting [1] of 44 nM. Also, the Emax (M2-GIRK1/4 reporter cells) amounted to 93.5%.
For the compound `O=C(NC12CC(C1)C2)c1cn(-c2c(F)cc(F)cc2F)c2nc(N3CC(O)C4(CC4)C3)ccc2c1=O` (racemic) [Example 628, N-(Bicyclo[1.1.1]pent-1-yl)-7-[7-hydroxy-5-azaspiro[2.4]hept-5-yl]-4-oxo-1-(2,4,6-trifluorophenyl)-1,4-dihydro-1,8-naphthyridine-3-carboxamide], the Efficiency (M2-GIRK1/4 reporter cells) is listed as 89.5%.
The compound `O=C(N[C@@H](C1CC1)C(F)(F)F)c1cn(-c2c(F)cc(F)cc2F)c2nc(N3CC(CO)OC3=O)ccc2c1=O` (mixture of isomers) [Example 659, N-[(1S)-1-Cyclopropyl-2,2,2-trifluoroethyl]-7-[5-(hydroxymethyl)-2-oxo-1,3-oxazolidin-3-yl]-4-oxo-1-(2,4,6-trifluorophenyl)-1,4-dihydro-1,8-naphthyridine-3-carboxamide] gave an EC50 under setting [1] of 81 nM. Moreover, the Emax (M2-GIRK1/4 reporter cells) amounted to 98%.
In the case of `CC[C@@H](NC(=O)c1cn(-c2ccc(F)cc2F)c2nc(N3CCC(C)(O)C3=O)ccc2c1=O)C(F)(F)F` (single isomer, unassigned) [Example 195], the EC50 under setting [2] is 343 nM.
Under setting [2], `CC[C@@H](NC(=O)c1cn(-c2ccc(F)cc2F)c2nc(N3CCC(C)(O)C3=O)ccc2c1=O)C(F)(F)F` (single isomer, unassigned) [Example 196] had an EC50 of 137 nM.
Regarding `O=C(N[C@H](c1ccccc1Cl)C(F)(F)F)c1cn(-c2ccc(F)cc2F)c2nc(N3CCCC(O)C3=O)ccc2c1=O` (single isomer, unassigned) [Example 209], under setting [2], the response was half-maximal at 163 nM (EC50).
`O=C(N[C@H](c1ccccc1Cl)C(F)(F)F)c1cn(-c2ccc(F)cc2F)c2nc(N3CCCC(O)C3=O)ccc2c1=O` (single isomer, unassigned) [Example 210] gave an EC50 under setting [2] of 285 nM.
The same measure, in the same setting: next, `CC(NC(=O)c1cn(-c2ccc(F)cc2F)c2nc(N3C[C@@H](O)CC3=O)ccc2c1=O)c1c(F)cccc1F` (single isomer, unassigned) [Example 215]: 178 nM.
The compound `CC[C@@H](NC(=O)c1cn(-c2ccc(F)cc2F)c2nc(N3CC4CNC(=O)C4C3)ccc2c1=O)C(F)(F)F` (single isomer, unassigned) [Example 222] registered an EC50 under setting [2] of 200 nM.
Same read-out and setting: with `O=C(NC(c1c(F)cccc1F)C(F)(F)F)c1cn(-c2ccc(F)cc2F)c2nc(N3CCCC(O)C3=O)ccc2c1=O` (single isomer, unassigned) [Example 248, 1-(2,4-Difluorophenyl)-N-[1-(2,6-difluorophenyl)-2,2,2-trifluoroethyl]-7-[3-hydroxy-2-oxopiperidin-1-yl]-4-oxo-1,4-dihydro-1,8-naphthyridine-3-carboxamide] the figure was 330 nM; with `O=C(NC(c1c(F)cccc1F)C(F)(F)F)c1cn(-c2ccc(F)cc2F)c2nc(N3CCCC(O)C3=O)ccc2c1=O` (single isomer, unassigned) [Example 249, 1-(2,4-Difluorophenyl)-N-[1-(2,6-difluorophenyl)-2,2,2-trifluoroethyl]-7-[3-hydroxy-2-oxopiperidin-1-yl]-4-oxo-1,4-dihydro-1,8-naphthyridine-3-carboxamide], 505 nM; with `O=C(NC(c1c(F)cccc1F)C(F)(F)F)c1cn(-c2ccc(F)cc2F)c2nc(N3CCCC(O)C3=O)ccc2c1=O` (single isomer, unassigned) [Example 251, 1-(2,4-Difluorophenyl)-N-[1-(2,6-difluorophenyl)-2,2,2-trifluoroethyl]-7-[3-hydroxy-2-oxopiperidin-1-yl]-4-oxo-1,4-dihydro-1,8-naphthyridine-3-carboxamide], 163 nM.
`O=C(NC(c1c(F)cccc1F)C(F)(F)F)c1cn(-c2ccc(F)cc2F)c2nc(N3CCC(O)CC3=O)ccc2c1=O` (single isomer, unassigned) [Example 253, 1-(2,4-Difluorophenyl)-N-[1-(2,6-difluorophenyl)-2,2,2-trifluoroethyl]-7-[4-hydroxy-2-oxopiperidin-1-yl]-4-oxo-1,4-dihydro-1,8-naphthyridine-3-carboxamide] yielded an EC50 under setting [2] of 483 nM.
Consider `O=C(NC(c1c(F)cccc1F)C(F)(F)F)c1cn(-c2ccc(F)cc2F)c2nc(N3CCC(O)CC3=O)ccc2c1=O` (single isomer, unassigned) [Example 254, 1-(2,4-Difluorophenyl)-N-[1-(2,6-difluorophenyl)-2,2,2-trifluoroethyl]-7-[4-hydroxy-2-oxopiperidin-1-yl]-4-oxo-1,4-dihydro-1,8-naphthyridine-3-carboxamide], for which the EC50 under setting [2] is 337 nM.
Under setting [2], `O=C(NC(c1c(F)cccc1F)C(F)(F)F)c1cn(-c2ccc(F)cc2F)c2nc(N3CCC(O)CC3=O)ccc2c1=O` (single isomer, unassigned) [Example 256, 1-(2,4-Difluorophenyl)-N-[1-(2,6-difluorophenyl)-2,2,2-trifluoroethyl]-7-[4-hydroxy-2-oxopiperidin-1-yl]-4-oxo-1,4-dihydro-1,8-naphthyridine-3-carboxamide] yielded an EC50 of 147 nM.
Consider `CC[C@@H](NC(=O)c1cn(-c2ccc(F)cc2F)c2nc(N3CCOC(C(F)F)C3)ccc2c1=O)C(F)(F)F` (single isomer, unassigned) [Example 264], for which the midpoint of the response under setting [2], the EC50, lay at 530 nM.

Source of the values: US20190367516A1 (Bayer Pharma Aktiengesellschaft, priority 2015, published 2019).
